Patent publication US20160287575A1, “COMPOSITIONS AND METHODS FOR THE TREATMENT OF DISEASES INVOLVING HIPPO PATHWAY” (DUKE UNIVERSITY, priority 2013, published 2016)
Residues, ends and D or L forms follow the SMILES beside them. *: point of attachment. Cbz = O=C(OCc1ccccc1)*

Assays:
[1] = test system: YAP; assay: pharmacological block of YAP protein turnover in RASSF4-deficient aRMS cells; type: cell-based, human; details: RASSF4-deficient aRMS cells versus control; data not shown
Source text: Finally, we examined whether there was a connection between RASSF4 and YAP. […] Since YAP protein is turned over by sequential phosphorylation and ubiquitin-mediated degradation (Zhao et al., Genes Dev. 24:72-85 (2010)), we attempted to pharmacologically block YAP protein turnover in RASSF4-deficient cells using MG132 or IC 261. […] When examined at the transcriptional level, we observed a decreasing trend in YAP mRNA levels that only reached significance with one RASSF4 shRNA. Since RASSF4 loss of function was causing growth arrest and senescence, we reasoned that these effects on YAP could be caused by the growth arrest itself and RASSF4 loss. […] Instead, cells expressing YAP S127A and RASSF4 shRNA had more pronounced mitotic defects (data not shown). Therefore, while we cannot identify a clear connection between RASSF4 and YAP in aRMS at this time, Hippo signaling is clearly dysregulated at multiple levels in RMS through RASSF4-MST1 and YAP-mediated mechanisms (FIG. 7F).

[2] = test system: LATS1; assay: nocodazole treatment, LATS1 phosphorylation by immunoblot; type: cell-based, human; details: nocodazole-treated HSMM^PF+H+M cells, control and RASSF4-knockdown
[3] = biological target: T1, MST1 (Homo sapiens, UniProt Q13043, K59R); assay: staurosporine stimulation, MST1 phosphorylation by immunoblot; type: cell-based; details: MST1 K59R expressing HSMM^PF+H+M cells, 1 μM STS, 1 hour
T1 construct: expressed in transfected cells; host or cells: HSMM^PF+H+M cells (human skeletal muscle myoblasts expressing PAX3-FOXO1, hTERT, MycN), with or without RASSF4 shRNA
T1 sequence (Q13043 1-487 K59R): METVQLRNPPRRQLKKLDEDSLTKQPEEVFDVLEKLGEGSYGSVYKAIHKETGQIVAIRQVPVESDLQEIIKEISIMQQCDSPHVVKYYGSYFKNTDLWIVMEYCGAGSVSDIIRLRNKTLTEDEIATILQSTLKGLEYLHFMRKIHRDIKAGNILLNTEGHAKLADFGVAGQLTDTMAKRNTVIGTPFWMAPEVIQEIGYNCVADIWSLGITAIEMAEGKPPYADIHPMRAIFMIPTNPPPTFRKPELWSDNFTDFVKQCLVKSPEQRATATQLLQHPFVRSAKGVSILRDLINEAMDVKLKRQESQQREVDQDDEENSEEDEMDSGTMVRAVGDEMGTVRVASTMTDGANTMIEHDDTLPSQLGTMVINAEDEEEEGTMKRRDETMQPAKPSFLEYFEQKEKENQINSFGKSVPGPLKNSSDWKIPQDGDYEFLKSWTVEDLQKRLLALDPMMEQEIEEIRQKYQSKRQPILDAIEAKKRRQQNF
Method: (A) RASSF4 deficiency causes MST1 phosphorylation and cleavage upon staurosporine (STS) treatment. Cells expressing FLAG-MST1 K59R were treated for 1 hour with 1 μM STS and examined for phosphor-MST1/2 and total MST1 by immunoblot. (B) Upon 1 hour treatment with 1 μM STS, RASSF4-deficient aRMS cells display higher cleaved caspase 3 as measured by immunoblot. In A and B, actin was used as a loading control.
However, even without the ability to activate downstream signaling, MST1 K59R can still be regulated like wild-type MST1 through phosphorylation by upstream kinases and caspase cleavage. Since endogenous phospho-MST1 levels and MST1 cleavage products were in low abundance in aRMS cells and were difficult to detect, we used cells expressing MST1K59R to boost MST1 expression, while maintaining cell viability. We stimulated cells with staurosporine (STS), a well-established activator of MST1, and examined the role of RASSF4 in MST1 phosphorylation and cleavage (Graves et al., J. Biol. Chem 276:14909-14915 (2001)). […] This is the reported size of the MST1 cleavage fragment believed to be regulated by caspases (Graves et al. (2001); Cheung et al., Cell 113:507-517 (2003); Praskova et al., Biochem J. 381:453-462 (2004)). […]

[4] = biological target: Yki/YAP and transcriptional coactivator TEAD/TEF transcription factors (Homo sapiens, UniProt P46937); details: identified in a screen; cited from earlier work
Sequence of Yki/YAP and transcriptional coactivator TEAD/TEF transcription factors (P46937 whole entry): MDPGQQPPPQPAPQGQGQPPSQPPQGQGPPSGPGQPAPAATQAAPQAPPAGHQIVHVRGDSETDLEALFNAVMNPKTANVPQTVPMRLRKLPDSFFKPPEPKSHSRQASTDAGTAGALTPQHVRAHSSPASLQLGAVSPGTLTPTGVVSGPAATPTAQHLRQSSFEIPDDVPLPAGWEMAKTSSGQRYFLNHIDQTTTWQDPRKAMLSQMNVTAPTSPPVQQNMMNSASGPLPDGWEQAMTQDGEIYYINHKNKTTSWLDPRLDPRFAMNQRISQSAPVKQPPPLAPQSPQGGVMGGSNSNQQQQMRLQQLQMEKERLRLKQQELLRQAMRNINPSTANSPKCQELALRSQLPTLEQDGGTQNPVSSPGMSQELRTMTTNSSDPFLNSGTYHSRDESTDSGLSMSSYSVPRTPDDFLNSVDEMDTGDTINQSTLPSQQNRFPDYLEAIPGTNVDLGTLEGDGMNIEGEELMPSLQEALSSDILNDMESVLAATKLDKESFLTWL

Molecule: COc1cc(OC)c(C=C2C(O)=Nc3ccccc32)c(OC)c1 [IC 261]
- phospho-YAP and total YAP levels [1]: still lower

Molecule: CC(C)C[C@@H](C=O)NC(=O)[C@H](CC(C)C)NC(=O)[C@H](CC(C)C)NC(=O)OCc1ccccc1 [MG132] (Cbz-Leu-Leu-Leu-aldehyde)
- phospho-YAP and total YAP levels [1]: still lower

Molecule: COC(=O)Nc1nc2ccc(C(=O)c3cccs3)cc2[nH]1 [nocodazole]
- phosphorylated LATS1 [2]: reduction in phosphorylated LATS1

Molecule: CN[C@@H]1C[C@H]2O[C@@](C)([C@@H]1OC)n1c3ccccc3c3c4c(c5c6ccccc6n2c5c31)C(=O)NC4 [staurosporine]
- phosphorylation of full-length MST1 [3]: increased phosphorylation of full-length MST1

Molecule: verteporfin
- disruption of physical interactions between Yki/YAP and TEAD/TEF [4]: capable of disrupting physical interactions
